Experimental findings from patent US8658646B2, “Pyrrolopyrazine kinase inhibitors” (Hoffmann-LaRoche Inc., priority 2011, dated 2014) are described below.

The structures appear in SMILES notation. pIC50: −log10 of the molar value. Where a name gives a salt, the structure may show the parent alone.

This assay concerns the target T1, recombinant human SYK360-635 (Homo sapiens, UniProt P43405).
T1 construct: made in house
The assay can be described thus: Determination of IC50 of Spleen Tyrosine Kinase (SYK) inhibition, 33P ATP filtration assay. Format: biochemical. The conditions noted are these: SYK aa 360-635 0.5 nM; ATP 20 μM, peptide 5 μM, 0.1% BSA; read-out: SYK_ENZYME_FILTRATION/v1, BSA.

`Cc1ccc2c(-c3cnc4[nH]cc(C(=O)NC(C)(C)C)c4n3)nn(CCCN(C)C)c2c1` [Example I-427, 2-[1-(3-Dimethylamino-propyl)-6-methyl-1H-indazol-3-yl]-5H-pyrrolo[2,3-b]pyrazine-7-carboxylic acid tert-butylamide]: the pIC50 was 7.88.
To `Cc1ccc2c(-c3cnc4[nH]cc(C(=O)NC(C)(C)CN(C)C)c4n3)nn(C)c2c1` [Example I-430, 2-(1,6-Dimethyl-1H-indazol-3-yl)-5H-pyrrolo[2,3-b]pyrazine-7-carboxylic acid (2-dimethylamino-1,1-dimethyl-ethyl)-amide] belongs 5.87; to `CCc1ccc2c(-c3cnc4[nH]cc(C(=O)NC(C)(C)C)c4n3)nn(C)c2c1` [Example I-367, 2-(6-Ethyl-1-methyl-1H-indazol-3-yl)-5H-pyrrolo[2,3-b]pyrazine-7-carboxylic acid tert-butylamide], 8.32; to `CC(C)(C)NC(=O)c1c[nH]c2ncc(-c3nn(CCC4CNC4)c4cc(F)ccc34)nc12` [Example I-302, 2-[1-(2-Azetidin-3-yl-ethyl)-6-fluoro-1H-indazol-3-yl]-5H-pyrrolo[2,3-b]pyrazine-7-carboxylic acid tert-butylamide], 8.07.
As to `CC(C)(CO)NC(=O)c1c[nH]c2ncc(-c3n[nH]c4cc(Cl)ccc34)nc12` [Example I-414, 2-(6-Chloro-1H-indazol-3-yl)-5H-pyrrolo[2,3-b]pyrazine-7-carboxylic acid (2-hydroxy-1,1-dimethyl-ethyl)-amide], the pIC50 was 8.28.
Take `Cn1nc(-c2cnc3[nH]cc(C(=O)NC4(C)COC4)c3n2)c2ccc(F)cc21` [Example I-386, 2-(6-Fluoro-1-methyl-1H-indazol-3-yl)-5H-pyrrolo[2,3-b]pyrazine-7-carboxylic acid (3-methyl-oxetan-3-yl)-amide]: the pIC50 was 6.98.
Then `CC(C)(C)NC(=O)c1c[nH]c2ncc(-c3nn(C4CCNC4)c4cc(F)ccc34)nc12` (centres unmarked) [Example I-258, 2-(6-Fluoro-1-pyrrolidin-3-yl-1H-indazol-3-yl)-5H-pyrrolo[2,3-b]pyrazine-7-carboxylic acid tert-butylamide], with 7.61.
Then `CC(C)(C)NC(=O)c1c[nH]c2ncc(-c3nn(CC4CN(Cc5ccccc5)CCO4)c4ccc(OC(F)F)cc34)nc12` (centres unmarked) [Example I-340, 2-[1-(4-Benzyl-morpholin-2-ylmethyl)-5-difluoromethoxy-1H-indazol-3-yl]-5H-pyrrolo[2,3-b]pyrazine-7-carboxylic acid tert-butylamide], with 6.53; and `Cn1nc(-c2cnc3[nH]cc(C(=O)NC(C)(C)C)c3n2)c2ccc(C(F)(F)F)cc21` [Example I-420, 2-(1-Methyl-6-trifluoromethyl-1H-indazol-3-yl)-5H-pyrrolo[2,3-b]pyrazine-7 carboxylic acid tert-butylamide], with 7.48.
Then `CC(C)(C)NC(=O)c1c[nH]c2ncc(-c3n[nH]c4cc(F)ccc34)nc12` [Example I-411, 2-(6-Fluoro-1H-indazol-3-yl)-5H-pyrrolo[2,3-b]pyrazine-7-carboxylic acid tert-butylamide], with 7.02.
As to `COc1ccc2c(c1)c(-c1cnc3[nH]cc(C(=O)NC(C)(C)CO)c3n1)nn2C` [Example I-288, 2-(5-Methoxy-1-methyl-1H-indazol-3-yl)-5H-pyrrolo[2,3-b]pyrazine-7-carboxylic acid (2-hydroxy-1,1-dimethyl-ethyl)-amide], the pIC50 was 8.10.
For `Cn1cc(Cn2nc(-c3cnc4[nH]cc(C(=O)NC(C)(C)C)c4n3)c3cc(OC(F)F)ccc32)cn1` [Example I-274, 2-[5-Difluoromethoxy-1-(1-methyl-1H-pyrazol-4-ylmethyl)-1H-indazol-3-yl]-5H-pyrrolo[2,3-b]pyrazine-7-carboxylic acid tert-butylamide], the pIC50 is 8.60.
To `CCNC(=O)c1c[nH]c2ncc(-c3nn(CCCN(C)C)c4ccc(OC(F)F)cc34)nc12` [Example I-453, 2-(5-(Difluoromethoxy)-1-(3-(dimethylamino)propyl)-1H-indazol-3-yl)-N-ethyl-5H-pyrrolo[3,2-b]pyrazine-7-carboxamide trifluoroacetate] belongs 7.07; to `CC(C)(C)NC(=O)c1c[nH]c2ncc(-c3nccc4cc[nH]c34)nc12` [Example I-328, 2-(1H-Pyrrolo[2,3-c]pyridin-7-yl)-5H-pyrrolo[2,3-b]pyrazine-7 carboxylic acid tert-butylamide], 6.01.
For the compound `CC(C)(C)NC(=O)c1c[nH]c2ncc(-c3nn(C4CCNCC4)c4ccc(OC(F)F)cc34)nc12` [Example I-261, 2-(5-Difluoromethoxy-1-piperidin-4-yl-1H-indazol-3-yl)-5H-pyrrolo[2,3-b]pyrazine-7-carboxylic acid tert-butylamide], the pIC50 was 8.74.
To `CC(O)CCn1nc(-c2cnc3[nH]cc(C(=O)NC(C)(C)C)c3n2)c2cc(OC(F)F)ccc21` (centres unmarked) [Example I-447, N-tert-Butyl-2-(5-(difluoromethoxy)-1-(3-hydroxybutyl)-1H-indazol-3-yl)-5H-pyrrolo[3,2-b]pyrazine-7-carboxamide] belongs 8.57.
Then `CCC(C)(C)NC(=O)c1c[nH]c2ncc(-c3nn(C)c4cc(Cl)ccc34)nc12` [Example I-391, 2-(6-Chloro-1-methyl-1H-indazol-3-yl)-5H-pyrrolo[2,3-b]pyrazine-7-carboxylic acid (1,1-dimethyl-propyl)-amide], with 8.06; and `Cc1ccc2c(cnn2-c2cnc3[nH]cc(C(=O)NC(C)(C)C)c3n2)c1` [Example I-333, 2-(5-Methyl-indazol-1-yl)-5H-pyrrolo[2,3-b]pyrazine-7-carboxylic acid tert-butylamide], with 7.19; and `Cc1ccc2c(-c3cnc4[nH]cc(C(=O)NC(C)(C)CN)c4n3)n[nH]c2c1` [Example I-435, 2-(6-Methyl-1H-indazol-3-yl)-5H-pyrrolo[2,3-b]pyrazine-7-carboxylic acid (2-amino-1,1-dimethyl-ethyl)-amide], with 7.78.
Then `CC(C)(C)NC(=O)c1c[nH]c2ncc(-c3cccc4cc[nH]c34)nc12` [Example I-304, 2-(1H-Indol-7-yl)-5H-pyrrolo[2,3-b]pyrazine-7-carboxylic acid tert-butylamide], with 8.13; and `Cc1ccc2c(-c3cnc4[nH]cc(C(=O)NC(C)(C)CO)c4n3)nn(CCN(C)C)c2c1` [Example I-426, 2-[1-(2-Dimethylamino-ethyl)-6-methyl-1H-indazol-3-yl]-5H-pyrrolo[2,3-b]pyrazine-7-carboxylic acid (2-hydroxy-1,1-dimethyl-ethyl)-amide], with 7.24.
Turning to `CN(C)C(=O)CCn1nc(-c2cnc3[nH]cc(C(=O)NC(C)(C)C)c3n2)c2cc(OC(F)F)ccc21` [Example I-339, 2-[5-Difluoromethoxy-1-(2-dimethylcarbamoyl-ethyl)-1H-indazol-3-yl]-5H-pyrrolo[2,3-b]pyrazine-7-carboxylic acid tert-butylamide], the pIC50 is 7.75.
On to `CC(O)C(C)(C)NC(=O)c1c[nH]c2ncc(-c3nn(C)c4cc(Cl)ccc34)nc12` (centres unmarked) [Example I-413, 2-(6-Chloro-1-methyl-1H-indazol-3-yl)-5H-pyrrolo[2,3-b]pyrazine-7-carboxylic acid (2-hydroxy-1,1-dimethyl-propyl)-amide], for which the pIC50 is 7.46.
